Measured values published in the supplement of paper PMC10307832.

Legend:
Experiment in all cases: relative viability (nuclei count vs DMSO), 5 days (fraction); higher = more cells survive
[1] = compound: C1/C(=C\C2=CC=CS2)/C(=O)/C(=C/C3=CC=CS3)/C1 + C[C@@H](Oc1cc(-c2cnn(C3CCNCC3)c2)cnc1N)c1c(Cl)ccc(F)c1Cl [Crizotinib] (partner 1 µM)
Procedure, shortened: (§1)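 Lung cancer cell lines, seeded in 1536-well plates, were treated the following day by pin tool with a single drug or with five library-drug doses (not always all listed) in √10 steps on top of a fixed anchor-drug dose. Cells were fixed and nuclei stained in one step after 5 days, and nuclei were counted. Relative viability is the nuclei count for treated wells divided by that for vehicle wells, reported as medians of duplicate plates.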

[2] = compound: C1=CC(=CC=C1C2=CC(=C(S2)NC(=O)N)C(=O)N)F [TPCA-1] + CC(=O)c1c(C)c2cnc(Nc3ccc(N4CCNCC4)cn3)nc2n(C2CCCC2)c1=O [Palbociclib] (partner 0.5 µM)
Procedure, shortened: as §1

[3] = compound: C[C@]12O[C@H](C[C@]1(O)CO)n1c3ccccc3c3c4c(c5c6ccccc6n2c5c31)CNC4=O [Lestaurtinib] + O=C(CCCCCCC(=O)Nc1ccccc1)NO [Vorinostat] (partner 1 µM)
Procedure, shortened: as §1

Cell Line | relative viability ([1]; first compound 0.2 µM) | relative viability ([1]; first compound 0.6325 µM) | relative viability ([1]; first compound 2 µM) | relative viability ([1]; first compound 6.325 µM) | relative viability ([1]; first compound 20 µM) | relative viability ([2]; first compound 0.04 µM) | relative viability ([2]; first compound 0.1265 µM) | relative viability ([2]; first compound 0.4 µM) | relative viability ([2]; first compound 1.265 µM) | relative viability ([2]; first compound 4 µM) | relative viability ([3]; first compound 0.005 µM) | relative viability ([3]; first compound 0.01581 µM) | relative viability ([3]; first compound 0.05 µM) | relative viability ([3]; first compound 0.1581 µM) | relative viability ([3]; first compound 0.5 µM)
NCI-H3122 | 0.247 | 0.273 | 0.279 | 0.215 | 0.272 | 0.189 | 0.166 | 0.185 | 0.22 | 0.181 | 1.16 | 1.11 | 0.858 | 1.14 | 0.442
SK-MES-1 | 0.978 | 1.04 | 0.903 | 0.879 | 0.917 | 0.346 | 0.333 | 0.325 | 0.319 | 0.327 | 1.18 | 1.05 | 0.487 | 0.411 | 0.215
HOP-62 | 0.985 | 1.07 | 1 | 0.712 | 0.804 | 0.483 | 0.458 | 0.497 | 0.418 | 0.466 | 0.632 | 0.767 | 0.494 | 0.426 | 0.295
HCC-366 | 0.421 | 0.651 | 0.525 | 0.451 | 0.513 |  | 0.346 | 0.397 | 0.328 | 0.192 | 0.351 | 0.469 | 0.335 | 0.317 | 0.19
NCI-H2347 | 0.717 | 0.771 | 0.7 | 0.689 | 0.606 | 0.457 | 0.462 | 0.427 | 0.424 | 0.461 | 0.508 | 0.643 | 0.555 | 0.469 | 0.503
LXF-289 | 0.811 | 0.835 | 0.767 | 0.709 | 0.821 | 0.623 | 0.605 | 0.627 | 0.643 | 0.514 | 0.64 | 0.741 | 0.75 | 0.472 | 0.184
LU99A | 0.539 | 0.665 | 0.625 | 0.466 | 0.562 | 0.468 | 0.365 | 0.407 | 0.369 | 0.258 | 0.437 | 0.484 | 0.416 | 0.213 | 0.169
PC-14 | 0.995 | 0.838 | 0.819 | 0.725 | 0.956 | 0.502 | 0.57 | 0.557 | 0.518 | 0.4 | 0.718 | 0.558 | 0.509 | 0.324 | 0.0543
NCI-H2085 | 0.789 | 0.935 | 0.83 | 0.856 | 0.952 |  | 0.47 | 0.489 | 0.443 | 0.46 | 0.741 | 0.812 | 0.869 | 0.751 | 0.661
NCI-H2170 | 1.29 | 1.29 | 1.26 | 1.03 | 1.07 | 0.413 | 0.404 | 0.417 | 0.391 | 0.275 | 0.745 | 0.69 | 0.536 | 0.521 | 0.199
HCC-78 | 0.334 | 0.35 | 0.354 | 0.313 | 0.327 | 0.464 | 0.455 | 0.492 | 0.48 | 0.387 | 0.442 | 0.407 | 0.386 | 0.311 | 0.243
NCI-H2126 | 1 | 1.1 | 0.989 | 0.887 | 0.986 | 0.388 | 0.382 | 0.364 | 0.355 | 0.3 | 0.805 | 0.886 | 0.693 | 0.599 | 0.465
H3255 | 0.847 | 1.06 | 0.793 | 0.8 | 0.845 | 0.275 | 0.292 | 0.285 | 0.293 | 0.279 | 0.769 | 0.928 | 0.752 | 0.651 | 0.402
HCC-15 | 0.833 | 0.881 | 0.771 | 0.779 | 0.79 | 0.835 | 0.698 | 0.801 | 0.694 | 0.472 | 0.88 | 0.983 | 0.701 | 0.446 | 0.205
NCI-H661 | 1.02 | 0.986 | 0.948 | 0.947 | 1.02 | 0.413 | 0.397 | 0.411 | 0.399 | 0.378 | 0.873 | 0.669 | 0.525 | 0.4 | 0.339
NCI-H2009 | 1.11 | 1.09 | 1.02 | 0.971 | 1.06 | 0.254 | 0.204 | 0.25 | 0.174 | 0.19 | 0.782 | 0.759 | 0.665 | 0.689 | 0.501
HCC-44 | 0.802 | 0.862 | 0.712 | 0.734 | 0.798 | 0.987 | 0.902 | 0.995 | 0.995 | 1.03 | 1.06 | 1.13 | 1.1 | 1.23 | 0.446
ChaGo-K-1 | 1.16 | 1.23 | 1.08 | 1.05 | 0.76 | 0.976 | 0.663 | 0.795 | 0.891 | 0.733 | 0.767 | 0.807 | 0.614 | 0.465 | 0.356
COR-L23 | 0.536 | 0.69 | 0.639 | 0.592 | 0.633 | 0.316 | 0.289 | 0.272 | 0.206 | 0.169 | 0.618 | 0.433 | 0.294 | 0.212 | 0.115
EMC-BAC-2 | 0.789 | 0.792 | 0.751 | 0.59 | 0.695 | 0.513 | 0.519 | 0.524 | 0.413 | 0.485 | 0.32 | 0.703 | 0.337 | 0.317 | 0.222
LCLC-103H | 1.09 | 1.03 | 1.08 | 0.906 | 1.03 | 0.52 | 0.519 | 0.465 | 0.473 | 0.494 | 0.783 | 0.83 | 0.646 | 0.5 | 0.395
LK-2 | 0.249 | 0.225 | 0.218 | 0.215 | 0.242 | 0.726 |  | 0.725 | 0.697 | 0.427 | 0.237 | 0.353 | 0.198 | 0.193 | 0.154
SW 1573 | 0.778 | 0.693 | 0.889 | 0.749 | 0.895 | 0.429 | 0.396 | 0.396 | 0.395 | 0.407 | 0.767 | 0.864 | 0.488 | 0.424 | 0.198
NCI-H2405 | 0.904 | 0.851 | 0.851 | 0.798 | 0.839 | 0.565 | 0.507 | 0.525 | 0.446 | 0.478 | 1.03 | 1.29 | 0.88 | 0.938 | 0.253
NCI-H2087 | 0.867 | 0.901 | 0.746 | 0.735 | 0.993 | 0.253 | 0.241 | 0.218 | 0.237 | 0.155 | 0.815 | 0.652 | 0.667 | 0.474 | 0.373
NCI-H460 | 0.813 | 1.17 | 0.958 |  | 0.835 | 0.187 | 0.086 |  | 0.16 | 0.136 | 1 | 1.01 | 0.653 | 1.1 | 0.503
LOU-NH91 | 0.739 | 0.572 | 0.743 | 0.679 | 0.714 | 0.539 | 0.51 | 0.471 | 0.524 | 0.532 | 0.824 | 0.962 | 0.646 | 0.422 | 0.303
NCI-H1651 | 0.863 | 0.876 | 0.893 | 0.816 | 0.855 | 0.54 | 0.493 | 0.51 | 0.535 | 0.505 | 0.555 | 0.617 | 0.539 | 0.58 | 0.23
NCI-H441 | 0.967 | 0.786 | 1.06 | 0.729 | 0.604 | 0.186 | 0.183 | 0.188 | 0.239 | 0.162 | 0.641 | 0.837 | 0.62 | 0.573 | 0.389
